{
  "source": "patent US20210180080A1",
  "about": "“USE OF ALS MUTANT PROTEIN AND THE GENE THEREOF IN PLANT BREEDING BASED ON GENE EDITING TECHNOLOGY” (priority 2018, published 2021)",
  "format_in_all_cases": "in vivo",
  "key": {"[1]": {"test_system": "Mutant A51 rice (ALS amino acid 628 glycine to tryptophan)", "experiment": "herbicide resistance identification by spraying rice seedlings, mutant", "details": "investigated 14 days later", "text": "(§1) The homozygous mutant T1 individual plants identified in Examples 2 and 3 were propagated, and the seeds were harvested in the artificial climate room of Nanjing Jiangsu Academy of Agricultural Sciences, which were the T2 generation; the T2 generation was continued to be propagated to obtain T3 Generation seeds. After accelerating the germination of the harvested T3 seeds, they were sown at a density of 450 kg hm^−2. When the rice growed to two leaves and one heart, the field water was drained and imazethapyr (aqueous agent, purchased from Nanjing Aijin Agrochemical Co., Ltd.) was sprayed at 210, 700, and 1400 g(a.i.) hm^−2 concentrations, respectively, with the water as the control group. After spraying for 24 h, the water was rehydrated, and the resistance was investigated 14 days later.\n(§2) After accelerating germination of the T3 generation seeds in Example 4, they were sown at a density of 450 kg hm^−2. When the rice growed to two leaves and one heart, water in the field water was drained and Bailongtong (aqueous agent, purchased from Nanjing Aijin Agrochemical Co., Ltd.) was sprayed at 240, 2400, 4800 g(ai) hm^−2 concentration with water as the control group. After spraying for 24 h, the water was rehydrated, and the resistance was investigated 14 days later."}, "[2]": {"test_system": "transgenic lines A1-A58 of rice Nanjing 9108", "experiment": "herbicide screening of T1 generation transgenic lines", "details": "210 g (a.i.) hm^−2, investigated after 14 days", "description": "The T0 generation plants were harvested as an individual plant, and the harvested seeds were germinated and sown at a density of 450 kg hm^−2. When the rice growed to two leaves and one heart, the water was drained from the field and imazethapyr (aqueous agent, purchased from Nanjing Aijin Agrochemical Co., Ltd.) was sprayed at 210 g (a.i.) hm^−2. Rehydrate after spraying for 24 h, and investigate resistance after 14 days. Plants with all withered or dead leaves were susceptibleness, while the healthy and viable plants were resistance. […] Therefore, the frequency of obtaining herbicide resistant strains in this study was 1.72%. According to reports, the mutation frequency of herbicide resistant rice lines obtained by chemical mutagenesis was 0.00003^˜0.006%."}, "[3]": {"test_system": "wild-type rice Nanjing 9108", "experiment": "herbicide resistance identification by spraying rice seedlings, wild type", "details": "investigated 14 days later", "text": "as §1, §2"}, "[4]": {"details": "210 g(a.i.) hm^−2 sprayed at two leaves and one heart"}, "[5]": {"details": "210 g(a.i.) hm^−2 sprayed at two leaves and one heart, listed as Imazethapyr"}},
  "data": [
    {"smiles": "CCc1cnc(C2=NC(C)(C(C)C)C(=O)N2)c(C(=O)O)c1", "note": "(stereo not drawn) [imazethapyr]", "values": [
      {"measurement": "resistance (survival) of mutant plants after spraying", "setting": "[1]; [4]", "result": "could survive"},
      {"measurement": "resistance (survival) of mutant plants after spraying", "setting": "[1]; [5]", "result": "still grow and develop normally"},
      {"measurement": "resistance (survival) of mutant plants after spraying", "setting": "[1]; 240 g(ai) hm^−2 sprayed at two leaves and one heart", "result": "survived"},
      {"measurement": "resistance (survival) of mutant plants after spraying", "setting": "[1]; 700 g(a.i.) hm^−2 sprayed at two leaves and one heart, T3 generation", "result": "could survive"},
      {"measurement": "resistance (survival) of mutant plants after spraying", "setting": "[1]; 1400 g(a.i.) hm^−2 sprayed at two leaves and one heart, T3 generation", "result": "could survive"},
      {"measurement": "resistance (survival) of mutant plants after spraying", "setting": "[1]; 2400 g(ai) hm^−2 sprayed at two leaves and one heart, T3 generation", "result": "survived"},
      {"measurement": "resistance of A51 line plants after spraying", "setting": "[2]; A51 line, T1 generation", "result": "survived and showed herbicide resistance"},
      {"measurement": "resistance of the other 57 lines after spraying", "setting": "[2]; the other 57 of lines A1-A58, T1 generation", "result": "died"},
      {"measurement": "resistance (survival) of wild-type plants after spraying", "setting": "[3]; [4]", "result": "all died"},
      {"measurement": "resistance (survival) of wild-type plants after spraying", "setting": "[3]; [5]", "result": "appear to die in whole"},
      {"measurement": "resistance (survival) of wild-type plants after spraying", "setting": "[3]; 700 g(a.i.) hm^−2 sprayed at two leaves and one heart", "result": "all died"},
      {"measurement": "resistance (survival) of wild-type plants after spraying", "setting": "[3]; 1400 g(a.i.) hm^−2 sprayed at two leaves and one heart", "result": "all died"}
    ]}
  ]
}
